Assay results from patent US10155768B2, “Fused pyrimidine compound or salt thereof” (TAIHO PHARMACEUTICAL CO., LTD., priority 2016, dated 2018).

Assay: Evaluation of stability in liver microsome
Settings: mouse liver microsome 0.25 mg/mL, 1 μM test compound, 37° C. for 30 minutes
Method: Solutions of the test compounds in DMSO/acetonitrile (the final concentration of each test compound was 1 μM, the final concentration of DMSO was 0.01%, and the final concentration of acetonitrile was 1%) were individually added to a liver microsome mixture solution (mouse liver microsome with a final concentration of 0.25 mg/mL, a potassium phosphate buffer with a final concentration of 100 mM, and magnesium chloride with a final concentration of 3 mM), and each mixture was pre-incubated at 37° C. for 5 minutes. […] After incubation at 37° C. for 30 minutes, a double amount of ethanol was added thereto to terminate the reaction, thereby obtaining post-reaction samples. A double amount of ethanol was added to each of the remaining mixture solutions, and a NADPH-generating system was further added thereto, thereby obtaining pre-reaction samples. The pre-reaction samples and post-reaction samples were centrifuged at 2000×g, and their supernatant was filtered through a glass filter. Each filtrate was then introduced into LC-MS/MS, and MS/MS peaks of the test compounds were detected. From the ratio of the post-reaction MS/MS peak to the pre-reaction MS/MS peak of the test compounds, the percentage of the remaining test compounds (remaining %) was calculated.

SMILES	Remaining (%)
COCc1ccc(NC(=O)c2c(C#CCN3CC[S+]([O-])CC3)n(C3(C)CC3)c3ncnc(N)c23)cc1 [Example 178, 4-amino-N-(4-(methoxymethyl)phenyl)-7-(1-methylcyclopropyl)-6-(3-(1-oxidethiomorpholino)prop-1-yn-1-yl)-7H-pyrrolo[2,3-d]pyrimidine-5-carboxamide]	88
COCc1ccc(NC(=O)c2cn(C3(CF)CC3)c3ncnc(N)c23)cc1 [Example 45, 4-amino-7-(1-(fluoromethyl)cyclopropyl)-N-(4-(methoxymethyl)phenyl)-7H-pyrrolo[2,3-d]pyrimidine-5-carboxamide]	66
COCc1ccc(NC(=O)c2c(-c3ccc(F)nc3)n(C3(C)CC3)c3ncnc(N)c23)cc1 [Example 190, 4-amino-6-(6-fluoropyridin-3-yl)-N-(4-(methoxymethyl)phenyl)-7-(1-methylcyclopropyl)-7H-pyrrolo[2,3-d]pyrimidine-5-carboxamide]	58
COCc1ccc(NC(=O)c2cn(C(C)(C)C)c3ncnc(N)c23)cc1 [Example 2, 4-amino-7-(tert-butyl)-N-(4-(methoxymethyl)phenyl)-7H-pyrrolo[2,3-d]pyrimidine-5-carboxamide]	64
COCc1ccc(NC(=O)c2c(C#Cc3cncc(C#N)c3)n(C3(C)CC3)c3ncnc(N)c23)cc1 [Example 195, 4-amino-6-((5-cyanopyridin-3-yl)ethynyl)-N-(4-(methoxymethyl)phenyl)-7-(1-methylcyclopropyl)-7H-pyrrolo[2,3-d]pyrimidine-5-carboxamide]	70
COCc1ccc(NC(=O)c2c(-c3cnn(C)c3)n(C3(C)CC3)c3ncnc(N)c23)cc1 [Example 150, 4-amino-N-(4-(methoxymethyl)phenyl)-6-(1-methyl-1H-pyrazol-4-yl)-7-(1-methylcyclopropyl)-7H-pyrrolo[2,3-d]pyrimidine-5-carboxamide]	78
COCc1ccc(NC(=O)c2c(C#Cc3c[nH]c4ccccc34)n(C3(C)CC3)c3ncnc(N)c23)cc1 [Example 121, 6-((1H-indol-3-yl)ethynyl)-4-amino-N-(4-(methoxymethyl)phenyl)-7-(1-methylcyclopropyl)-7H-pyrrolo[2,3-d]pyrimidine-5-carboxamide]	74
COCc1ccc(NC(=O)c2c(C#CCCN3CCOCC3)n(C3(C)CC3)c3ncnc(N)c23)cc1 [Example 187, 4-amino-N-(4-(methoxymethyl)phenyl)-7-(1-methylcyclopropyl)-6-(4-morpholinobut-1-yn-1-yl)-7H-pyrrolo[2,3-d]pyrimidine-5-carboxamide]	68
COCc1ccc(NC(=O)c2c(C#CCC(C)(C)O)n(C3(C)CC3)c3ncnc(N)c23)cc1 [Example 86, 4-amino-6-(4-hydroxy-4-methylpent-1-yn-1-yl)-N-[4-(methoxymethyl)phenyl]-7-(1-methylcyclopropyl)-7H-pyrrolo[2,3-d]pyrimidine-5-carboxamide]	66
COCc1ccc(NC(=O)c2c(-c3ccc(N4CCN(C)CC4)cc3)n(C3(C)CC3)c3ncnc(N)c23)cc1 [Example 171, 4-amino-N-(4-(methoxymethyl)phenyl)-7-(1-methylcyclopropyl)-6-(4-(4-methylpiperazin-1-yl)phenyl)-7H-pyrrolo[2,3-d]pyrimidine-5-carboxamide]	77
COCc1ccc(NC(=O)c2c(-c3ccc(CO)cc3)n(C3(C)CC3)c3ncnc(N)c23)cc1 [Example 145, 4-amino-6-(4-(hydroxymethyl)phenyl)-N-(4-(methoxymethyl)phenyl)-7-(1-methylcyclopropyl)-7H-pyrrolo[2,3-d]pyrimidine-5-carboxamide]	72
CCC(O)CC#Cc1c(C(=O)Nc2ccc(COC)cc2)c2c(N)ncnc2n1C1(C)CC1 (stereo not shown) [Example 157, 4-amino-6-(4-hydroxyhex-1-yn-1-yl)-N-(4-(methoxymethyl)phenyl)-7-(1-methylcyclopropyl)-7H-pyrrolo[2,3-d]pyrimidine-5-carboxamide]	59
COCc1ccc(NC(=O)c2c(C#Cc3cnn(C)c3C)n(C3(C)CC3)c3ncnc(N)c23)cc1 [Example 182, 4-amino-6-((1,5-dimethyl-1H-pyrazol-4-yl)ethynyl)-N-(4-(methoxymethyl)phenyl)-7-(1-methylcyclopropyl)-7H-pyrrolo[2,3-d]pyrimidine-5-carboxamide]	61
CC(C)(C)n1cc(C(=O)Nc2ccc(-c3cc[nH]n3)cc2)c2c(N)ncnc21 [Example 80, N-(4-(1H-pyrazol-3-yl)phenyl)-4-amino-7-(tert-butyl)-7H-pyrrolo[2,3-d]pyrimidine-5-carboxamide]	50
COCc1ccc(NC(=O)c2c(C#CC(O)C3CC3)n(C3(C)CC3)c3ncnc(N)c23)cc1 (stereo not shown) [Example 104, 4-amino-6-(3-cyclopropyl-3-hydroxyprop-1-yn-1-yl)-N-(4-(methoxymethyl)phenyl)-7-(1-methylcyclopropyl)-7H-pyrrolo[2,3-d]pyrimidine-5-carboxamide]	52
COCc1ccc(NC(=O)c2c(C#CCN3CCCCC3)n(C3(C)CC3)c3ncnc(N)c23)cc1 [Example 105, 4-amino-N-[4-(methoxymethyl)phenyl]-7-(1-methylcyclopropyl)-6-(3-(piperidin-1-yl)prop-1-yn-1-yl)-7H-pyrrolo[2,3-d]pyrimidine-5-carboxamide]	52
COCc1ccc(NC(=O)c2c(-c3cccnc3)n(C3(C)CC3)c3ncnc(N)c23)cc1 [Example 61, 4-amino-N-(4-(methoxymethyl)phenyl)-7-(1-methylcyclopropyl)-6-(pyridin-3-yl)-7H-pyrrolo[2,3-d]pyrimidine-5-carboxamide]	81
COCc1ccc(NC(=O)c2c(C#Cc3cnn(C)c3)n(C3(C)CC3)c3ncnc(N)c23)cc1 [Example 90, 4-amino-N-[4-(methoxymethyl)phenyl]-6-((1-methyl-1H-pyrazol-4-yl)ethynyl)-7-(1-methylcyclopropyl)-7H-pyrrolo[2,3-d]pyrimidine-5-carboxamide]	67
COCc1ccc(NC(=O)c2c(OCCN3CCCC3=O)n(C3(C)CC3)c3ncnc(N)c23)cc1 [Example 136, 4-amino-N-(4-(methoxymethyl)phenyl)-7-(1-methylcyclopropyl)-6-(2-(2-oxopyrrolidin-1-yl)ethoxy)-7H-pyrrolo[2,3-d]pyrimidine-5-carboxamide]	78
COCc1ccc(NC(=O)c2c(C#Cc3ccccc3OC)n(C3(C)CC3)c3ncnc(N)c23)cc1 [Example 113, 4-amino-N-(4-(methoxymethyl)phenyl)-6-((2-methoxyphenyl)ethynyl)-7-(1-methylcyclopropyl)-7H-pyrrolo[2,3-d]pyrimidine-5-carboxamide]	79
COCc1ccc(NC(=O)c2c(C#Cc3cn(C)nc3C)n(C3(C)CC3)c3ncnc(N)c23)cc1 [Example 181, 4-amino-6-((1,3-dimethyl-1H-pyrazol-4-yl)ethynyl)-N-(4-(methoxymethyl)phenyl)-7-(1-methylcyclopropyl)-7H-pyrrolo[2,3-d]pyrimidine-5-carboxamide]	62
COCc1ccc(NC(=O)c2c(C#CC3(O)CCOCC3)n(C3(C)CC3)c3ncnc(N)c23)cc1 [Example 185, 4-amino-6-((4-hydroxytetrahydro-2H-pyran4-yl)ethynyl)-N-(4-(methoxymethyl)phenyl)-7-(1-methylcyclopropyl)-7H-pyrrolo[2,3-d]pyrimidine-5-carboxamide]	80
COCc1ccc(NC(=O)c2c(C#Cc3ccn(C)n3)n(C3(C)CC3)c3ncnc(N)c23)cc1 [Example 92, 4-amino-N-(4-(methoxymethyl)phenyl)-6-((1-methyl-1H-pyrazol-3-yl)ethynyl)-7-(1-methylcyclopropyl)-7H-pyrrolo[2,3-d]pyrimidine-5-carboxamide]	67
COCc1ccc(NC(=O)c2c(C#CCN3CCCC3)n(C3(C)CC3)c3ncnc(N)c23)cc1 [Example 88, 4-amino-N-[4-(methoxymethyl)phenyl]-7-(1-methylcyclopropyl)-6-(3-(pyrrolidin-1-yl)prop-1-yn-1-yl)-7H-pyrrolo[2,3-d]pyrimidine-5-carboxamide]	59
COCc1ccc(NC(=O)c2c(-c3ccc(NC(C)=O)nc3)n(C3(C)CC3)c3ncnc(N)c23)cc1 [Example 147, 6-(6-acetamidopyridin-3-yl)-4-amino-N-(4-(methoxymethyl)phenyl)-7-(1-methylcyclopropyl)-7H-pyrrolo[2,3-d]pyrimidine-5-carboxamide]	68
COCc1ccc(NC(=O)c2c(C#Cc3cncc(F)c3)n(C3(C)CC3)c3ncnc(N)c23)cc1 [Example 175, 4-amino-6-((5-fluoropyridin-3-yl)ethynyl)-N-(4-(methoxymethyl)phenyl)-7-(1-methylcyclopropyl)-7H-pyrrolo[2,3-d]pyrimidine-5-carboxamide]	66
COCc1ccc(NC(=O)c2c(C#Cc3cnc4cccnn34)n(C3(C)CC3)c3ncnc(N)c23)cc1 [Example 91, 4-amino-6-(imidazo[1,2-b]pyridazin-3-ylethynyl)-N-[4-(methoxymethyl)phenyl]-7-(1-methylcyclopropyl)-7H-pyrrolo[2,3-d]pyrimidine-5-carboxamide]	65
COCc1ccc(NC(=O)c2c(OCC(C)(C)OC)n(C3(C)CC3)c3ncnc(N)c23)cc1 [Example 137, 4-amino-6-(2-methoxy-2-methylpropoxy)-N-(4-(methoxymethyl)phenyl)-7-(1-methylcyclopropyl)-7H-pyrrolo[2,3-d]pyrimidine-5-carboxamide]	53
